# Measured values: US9050341B2, “Methods of treating drug resistant and other tumors by administering 6,7-dialkoxy quinazoline derivatives” (NATCO PHARMA LIMITED, priority 2009, dated 2015)
# Key:
# Assay in all cases: KinomeScan kinase profiling
# Type in all cases: binding
# [1] = target: T1, ABL1 (H396P) (Homo sapiens, UniProt P00519, H396P)
# T1 construct: host or cells: E. coli host derived from BL21 (T7 phage lysate)
# Method in brief: (§1)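 Kinases were expressed as T7 phage fusions in a BL21-derived E. coli host and the cleared lysates were used. Ligand beads were blocked with biotin and buffer (1% BSA, 0.05% Tween 20, 1 mM DTT). Compounds came from 40× DMSO stocks, and phage in the eluates was titred by qPCR.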
# [2] = target: T2, MEK3 (Homo sapiens, UniProt P46734)
# T2 construct: host or cells: E. coli derived from BL21, infected with T7 phage
# T2 sequence (P46734 whole entry): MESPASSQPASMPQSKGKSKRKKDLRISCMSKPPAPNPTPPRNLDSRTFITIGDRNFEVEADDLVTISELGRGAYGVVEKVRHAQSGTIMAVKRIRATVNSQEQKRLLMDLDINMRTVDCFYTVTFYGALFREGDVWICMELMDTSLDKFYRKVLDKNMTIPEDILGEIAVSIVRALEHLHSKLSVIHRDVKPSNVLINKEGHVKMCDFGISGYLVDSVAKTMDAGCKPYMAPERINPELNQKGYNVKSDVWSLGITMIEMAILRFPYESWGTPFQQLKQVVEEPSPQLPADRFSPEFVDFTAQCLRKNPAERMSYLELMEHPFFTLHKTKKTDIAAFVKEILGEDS
# Method in brief: as §1
# [3] = target: T3, RET (V804L) (Homo sapiens, UniProt P07949, V804L)
# T3 construct: host or cells: E. coli host derived from BL21, T7 phage lysate
# Method in brief: as §1
# [4] = target: T4, ERK3 (Homo sapiens, UniProt Q16659)
# T4 construct: host or cells: E. coli host derived from BL21, T7 phage lysate
# Method in brief: as §1
# [5] = target: T5, TNK1 (Homo sapiens, UniProt Q13470)
# T5 construct: purchased Ambit Biosciences Corp (KinomeScan); host or cells: E. coli host derived from the BL21 strain (T7 phage lysate)
# T5 sequence (Q13470 whole entry): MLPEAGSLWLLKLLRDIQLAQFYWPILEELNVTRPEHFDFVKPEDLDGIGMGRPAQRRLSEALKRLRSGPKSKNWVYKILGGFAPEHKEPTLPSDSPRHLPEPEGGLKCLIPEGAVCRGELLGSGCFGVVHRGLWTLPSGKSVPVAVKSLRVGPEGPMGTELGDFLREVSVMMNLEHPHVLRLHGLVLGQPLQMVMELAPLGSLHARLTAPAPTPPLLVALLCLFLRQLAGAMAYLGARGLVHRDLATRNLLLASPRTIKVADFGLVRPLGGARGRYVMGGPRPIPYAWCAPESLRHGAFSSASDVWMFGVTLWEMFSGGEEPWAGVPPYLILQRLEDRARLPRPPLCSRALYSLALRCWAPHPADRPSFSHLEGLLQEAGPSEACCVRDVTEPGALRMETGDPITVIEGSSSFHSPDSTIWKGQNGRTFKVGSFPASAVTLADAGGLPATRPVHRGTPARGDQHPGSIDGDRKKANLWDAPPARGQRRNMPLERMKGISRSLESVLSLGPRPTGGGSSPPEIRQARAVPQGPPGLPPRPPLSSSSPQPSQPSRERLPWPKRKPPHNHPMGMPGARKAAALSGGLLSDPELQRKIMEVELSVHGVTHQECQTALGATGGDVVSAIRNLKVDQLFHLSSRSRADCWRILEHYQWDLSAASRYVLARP
# Method in brief: as §1
# [6] = target: T6, MST1R (Homo sapiens, UniProt Q04912)
# T6 construct: host or cells: T7 phage in E. coli host derived from BL21
# Method in brief: as §1
# [7] = target: T7, FES (Homo sapiens, UniProt P07332)
# T7 construct: host or cells: E. coli host derived from BL21, infected with T7 phage
# Method in brief: as §1
# [8] = target: T8, CIT (Homo sapiens, UniProt O14578)
# T8 construct: host or cells: T7 phage in E. coli (BL21-derived)
# Method in brief: as §1
# [9] = target: T9, PAK1 (Homo sapiens, UniProt Q13153)
# T9 construct: host or cells: E. coli host derived from the BL21 strain, infected with T7 phage
# T9 sequence (Q13153 whole entry): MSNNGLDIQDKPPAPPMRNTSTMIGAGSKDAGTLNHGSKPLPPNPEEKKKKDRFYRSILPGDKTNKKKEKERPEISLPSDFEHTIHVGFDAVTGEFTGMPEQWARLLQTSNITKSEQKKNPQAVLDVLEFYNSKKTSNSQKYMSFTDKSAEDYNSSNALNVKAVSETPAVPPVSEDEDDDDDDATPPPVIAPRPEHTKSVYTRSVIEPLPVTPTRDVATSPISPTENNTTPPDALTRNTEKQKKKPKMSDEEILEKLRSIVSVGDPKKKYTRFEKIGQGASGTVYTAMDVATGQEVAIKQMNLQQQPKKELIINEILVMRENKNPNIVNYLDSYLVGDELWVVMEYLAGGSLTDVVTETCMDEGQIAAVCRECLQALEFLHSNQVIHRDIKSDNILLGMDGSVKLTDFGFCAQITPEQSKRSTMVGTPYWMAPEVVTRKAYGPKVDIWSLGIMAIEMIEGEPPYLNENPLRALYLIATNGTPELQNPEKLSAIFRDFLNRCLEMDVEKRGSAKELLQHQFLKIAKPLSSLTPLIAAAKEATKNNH
# Method in brief: as §1
# [10] = target: T10, SgK110 (Homo sapiens, UniProt P0C264)
# T10 construct: host or cells: E. coli host derived from the BL21 strain, T7 phage lysate
# Method in brief: as §1
# [11] = target: T11, MAP3K4 (Homo sapiens, UniProt Q9Y6R4)
# T11 construct: host or cells: E. coli derived from BL21, infected with T7 phage
# T11 sequence (Q9Y6R4 whole entry): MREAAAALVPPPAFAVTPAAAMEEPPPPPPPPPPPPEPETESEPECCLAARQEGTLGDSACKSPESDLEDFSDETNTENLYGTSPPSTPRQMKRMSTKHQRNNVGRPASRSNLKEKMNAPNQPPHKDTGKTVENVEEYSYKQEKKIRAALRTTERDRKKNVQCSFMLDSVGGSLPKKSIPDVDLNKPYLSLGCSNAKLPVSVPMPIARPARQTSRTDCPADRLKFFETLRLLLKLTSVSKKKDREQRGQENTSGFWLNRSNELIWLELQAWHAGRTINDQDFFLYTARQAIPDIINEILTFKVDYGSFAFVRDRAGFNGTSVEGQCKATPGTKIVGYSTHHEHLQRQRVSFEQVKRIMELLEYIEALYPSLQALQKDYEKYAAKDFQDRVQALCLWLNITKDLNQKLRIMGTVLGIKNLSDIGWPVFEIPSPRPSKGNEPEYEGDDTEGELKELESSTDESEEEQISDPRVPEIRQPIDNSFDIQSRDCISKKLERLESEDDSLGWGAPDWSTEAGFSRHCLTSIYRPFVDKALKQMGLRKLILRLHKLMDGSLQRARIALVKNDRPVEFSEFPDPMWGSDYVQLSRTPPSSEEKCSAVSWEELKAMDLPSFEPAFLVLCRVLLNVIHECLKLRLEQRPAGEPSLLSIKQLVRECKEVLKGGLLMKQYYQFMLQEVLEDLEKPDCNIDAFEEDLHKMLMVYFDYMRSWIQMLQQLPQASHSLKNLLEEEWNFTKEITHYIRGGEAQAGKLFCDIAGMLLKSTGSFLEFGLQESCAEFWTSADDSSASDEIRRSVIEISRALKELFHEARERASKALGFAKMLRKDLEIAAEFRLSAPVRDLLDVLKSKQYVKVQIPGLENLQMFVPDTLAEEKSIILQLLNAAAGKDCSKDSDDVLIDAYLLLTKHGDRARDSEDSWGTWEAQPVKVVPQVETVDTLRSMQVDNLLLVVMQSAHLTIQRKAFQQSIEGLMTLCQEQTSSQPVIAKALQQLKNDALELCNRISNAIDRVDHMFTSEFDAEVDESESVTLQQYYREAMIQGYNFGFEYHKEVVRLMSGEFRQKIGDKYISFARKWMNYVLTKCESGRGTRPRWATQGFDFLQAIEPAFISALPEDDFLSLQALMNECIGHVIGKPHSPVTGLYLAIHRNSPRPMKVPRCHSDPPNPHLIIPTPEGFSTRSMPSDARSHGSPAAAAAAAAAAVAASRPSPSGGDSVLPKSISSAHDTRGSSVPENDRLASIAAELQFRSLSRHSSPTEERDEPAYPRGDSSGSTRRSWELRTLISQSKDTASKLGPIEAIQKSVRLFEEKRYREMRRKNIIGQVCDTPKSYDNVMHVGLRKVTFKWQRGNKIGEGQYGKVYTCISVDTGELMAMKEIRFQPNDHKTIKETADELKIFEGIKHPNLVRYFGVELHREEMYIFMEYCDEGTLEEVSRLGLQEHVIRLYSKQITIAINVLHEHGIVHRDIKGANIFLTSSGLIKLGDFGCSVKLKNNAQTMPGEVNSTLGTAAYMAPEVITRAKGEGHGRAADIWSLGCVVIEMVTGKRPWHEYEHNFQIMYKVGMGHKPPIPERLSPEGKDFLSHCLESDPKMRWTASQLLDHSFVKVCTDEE
# Method in brief: as §1
# [12] = target: T12, NEK5 (Homo sapiens, UniProt Q6P3R8)
# T12 construct: host or cells: T7 phage in E. coli host derived from BL21
# Method in brief: as §1
# [13] = target: T13, KIT (V559D, T670I) (Homo sapiens, UniProt P10721, T670I/V559D)
# T13 construct: host or cells: T7 phage in E. coli host derived from BL21
# T13 sequence (P10721 26-976 V559D/T670I): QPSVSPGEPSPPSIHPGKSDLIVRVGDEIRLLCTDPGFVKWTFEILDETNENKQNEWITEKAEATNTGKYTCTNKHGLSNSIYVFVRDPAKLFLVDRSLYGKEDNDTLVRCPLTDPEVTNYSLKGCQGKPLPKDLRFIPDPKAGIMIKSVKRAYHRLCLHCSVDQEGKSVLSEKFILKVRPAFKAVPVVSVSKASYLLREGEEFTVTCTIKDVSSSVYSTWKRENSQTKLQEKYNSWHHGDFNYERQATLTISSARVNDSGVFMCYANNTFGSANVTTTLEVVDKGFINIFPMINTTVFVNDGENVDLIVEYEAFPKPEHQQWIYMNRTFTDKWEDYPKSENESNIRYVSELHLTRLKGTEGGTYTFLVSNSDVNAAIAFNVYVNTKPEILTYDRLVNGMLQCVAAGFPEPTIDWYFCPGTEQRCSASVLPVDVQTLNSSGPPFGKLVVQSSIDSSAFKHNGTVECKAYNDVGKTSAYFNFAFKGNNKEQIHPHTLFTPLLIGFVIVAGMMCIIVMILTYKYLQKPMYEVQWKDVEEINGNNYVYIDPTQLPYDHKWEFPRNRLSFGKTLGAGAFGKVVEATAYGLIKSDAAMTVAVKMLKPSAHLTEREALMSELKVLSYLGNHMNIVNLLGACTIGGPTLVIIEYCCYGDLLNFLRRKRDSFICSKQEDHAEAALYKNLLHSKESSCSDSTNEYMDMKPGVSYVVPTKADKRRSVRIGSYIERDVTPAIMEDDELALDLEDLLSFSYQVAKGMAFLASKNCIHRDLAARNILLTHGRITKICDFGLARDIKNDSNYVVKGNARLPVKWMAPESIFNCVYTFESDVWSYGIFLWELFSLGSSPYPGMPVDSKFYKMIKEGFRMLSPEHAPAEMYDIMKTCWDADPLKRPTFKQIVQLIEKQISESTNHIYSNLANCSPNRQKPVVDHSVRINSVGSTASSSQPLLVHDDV
# Method in brief: as §1
# [14] = target: T14, MET (Homo sapiens, UniProt P08581)
# T14 construct: host or cells: E. coli derived from BL21, infected with T7 phage
# Method in brief: as §1
# [15] = target: T15, CSF1R (Homo sapiens, UniProt P07333)
# T15 construct: host or cells: T7 phage in E. coli (BL21-derived)
# T15 sequence (P07333 20-972): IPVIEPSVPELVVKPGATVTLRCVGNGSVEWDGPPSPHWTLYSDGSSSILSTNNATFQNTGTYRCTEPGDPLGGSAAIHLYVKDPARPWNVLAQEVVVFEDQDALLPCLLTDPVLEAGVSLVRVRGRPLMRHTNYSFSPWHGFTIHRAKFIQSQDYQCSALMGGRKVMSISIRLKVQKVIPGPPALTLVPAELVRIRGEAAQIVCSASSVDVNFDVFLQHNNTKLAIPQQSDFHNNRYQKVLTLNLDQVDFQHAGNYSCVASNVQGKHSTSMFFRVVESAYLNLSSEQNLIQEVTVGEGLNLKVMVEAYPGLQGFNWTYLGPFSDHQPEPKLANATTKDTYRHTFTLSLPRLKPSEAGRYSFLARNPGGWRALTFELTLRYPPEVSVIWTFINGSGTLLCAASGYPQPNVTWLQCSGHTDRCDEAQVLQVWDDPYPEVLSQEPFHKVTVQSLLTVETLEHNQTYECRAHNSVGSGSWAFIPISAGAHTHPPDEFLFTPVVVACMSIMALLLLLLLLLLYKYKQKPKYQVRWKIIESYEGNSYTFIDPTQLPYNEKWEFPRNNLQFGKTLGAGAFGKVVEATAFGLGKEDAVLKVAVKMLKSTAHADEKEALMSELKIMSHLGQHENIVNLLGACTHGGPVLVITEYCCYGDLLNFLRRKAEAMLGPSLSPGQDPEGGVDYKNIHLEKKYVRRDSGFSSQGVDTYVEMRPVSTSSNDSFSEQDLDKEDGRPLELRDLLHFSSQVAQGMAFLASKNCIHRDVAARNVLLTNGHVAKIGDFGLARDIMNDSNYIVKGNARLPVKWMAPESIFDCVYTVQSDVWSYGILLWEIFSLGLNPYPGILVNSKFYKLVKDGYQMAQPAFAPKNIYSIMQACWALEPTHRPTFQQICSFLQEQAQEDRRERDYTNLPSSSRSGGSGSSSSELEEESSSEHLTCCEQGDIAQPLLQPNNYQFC
# Method in brief: as §1
# [16] = target: T16, CAMK2D (Homo sapiens, UniProt Q13557)
# T16 construct: purchased Ambit Biosciences Corp (KinomeScan); host or cells: E. coli host derived from the BL21 strain, T7 phage
# Method in brief: as §1
# [17] = target: T17, PRKG1 (Homo sapiens, UniProt Q13976)
# T17 construct: purchased Ambit Biosciences Corp (KinomeScan); host or cells: E. coli host derived from BL21, infected with T7 phage
# Method in brief: as §1
# [18] = target: T18, TRKC (Homo sapiens, UniProt Q16288)
# T18 construct: purchased Ambit Biosciences Corp (KinomeScan); host or cells: E. coli host derived from the BL21 strain (T7 phage lysate)
# Method in brief: as §1
# [19] = target: T19, CSNK1G1 (Homo sapiens, UniProt Q9HCP0)
# T19 construct: purchased Ambit Biosciences Corp (KinomeScan); host or cells: T7 phage in E. coli host derived from BL21
# Method in brief: as §1
# [20] = target: T20, RIPK2 (Homo sapiens, UniProt O43353)
# T20 construct: host or cells: E. coli host derived from BL21, T7 phage lysate
# Method in brief: as §1
# [21] = target: T21, TAK1 (Homo sapiens, UniProt O43318)
# T21 construct: host or cells: E. coli host derived from the BL21 strain, T7 phage lysate
# Method in brief: as §1
# [22] = target: T22, WEE2 (Homo sapiens, UniProt P0C1S8)
# T22 construct: purchased Ambit Biosciences Corp (KinomeScan); host or cells: E. coli host derived from the BL21 strain (T7 phage lysate)
# Method in brief: as §1
compound,measurement,setting,value
"C#Cc1cccc(Nc2ncnc3cc(OC)c(OCCCN4CCOCC4)cc23)c1 [NRC-2694, N-(3-ethylnylphenyl)-7-methoxy-6-[3-(4-morpholinyl)propoxy]-4-quinazolinamine]",% Ctrl @ 10000 nM,[1],34 % Ctrl
same,% Ctrl @ 10000 nM,[2],100 % Ctrl
same,% Ctrl @ 10000 nM,[3],81 % Ctrl
same,% Ctrl @ 10000 nM,[4],10 % Ctrl
same,% Ctrl @ 10000 nM,[5],41 % Ctrl
same,% Ctrl @ 10000 nM,[6],94 % Ctrl
same,% Ctrl @ 10000 nM,[7],72 % Ctrl
same,% Ctrl @ 10000 nM,[8],5.0 % Ctrl
same,% Ctrl @ 10000 nM,[9],74 % Ctrl
same,% Ctrl @ 10000 nM,[10],83 % Ctrl
same,% Ctrl @ 10000 nM,[11],53 % Ctrl
same,% Ctrl @ 10000 nM,[12],94 % Ctrl
same,% Ctrl @ 10000 nM,[13],28 % Ctrl
same,% Ctrl @ 10000 nM,[14],33 % Ctrl
same,% Ctrl @ 10000 nM,[15],50 % Ctrl
same,% Ctrl @ 10000 nM,[16],35 % Ctrl
same,% Ctrl @ 10000 nM,[17],75 % Ctrl
same,% Ctrl @ 10000 nM,[18],80 % Ctrl
same,% Ctrl @ 10000 nM,[19],55 % Ctrl
same,% Ctrl @ 10000 nM,[20],2.4 % Ctrl
same,% Ctrl @ 10000 nM,[21],66 % Ctrl
same,% Ctrl @ 10000 nM,[22],53 % Ctrl
